In patent US6525001B1, “Substituted pyrimidine and pyridine herbicides” (Mid-American Commercialization Corporation, priority 1997, dated 2003):

What was measured:
Assay type in all cases: in vivo
Conditions in all cases: PREEMERGENCE
[1] = test system: ladysthumb smartweed (Polygonum persicaria); assay: Test C; parameters: key: 0 was no effect; 100 was complete control
[2] = test system: barnyardgrass (Echinochloa crus-galli); assay: Test C; parameters: key: 0 was no effect; 100 was complete control
[3] = test system: cotton (Gossypium hirsutum); assay: Test C; parameters: key: 0 was no effect; 100 was complete control
[4] = test system: sourgrass (Trichachne insularis); assay: Test E pre-/postemergence/post directed; parameters: key: 0 is no effect; 100 is complete control
Description: (§1) Seeds, tubers, or plant parts of alexandergrass (Brachiaria plantaginea), annual bluegrass (Poa annua), arrowleaf sida (Sida rhombifolia), barnyardgrass (Echinochloa crus-galli), bermudagrass (Cynodon dactylon), citrus (Citrus sinensis), common chickweed (Stellaria media), common purslane (Portulaca oleracea), common ragweed (Ambrosia elatior), common groundsel (Senecio vulgaris), dallisgrass (Paspalum dilatatum), goosegrass (Eleusine indica), green foxtail (Setaria viridis), guineagrass (Panicum maximum), itchgrass (Rottboellia exaltata), johnson grass (Sorghum halepense), kochia (Kochia scoparia), large crabgrass (Digitaria sanguinalis), leafy spurge (Euphorbia esula), pitted morningglory (Ipomoea lacunosa), purple nutsedge (Cyperus rotundus), quackgrass (Agropyron repens), Russian thistle (Salsola kali), sandbur (Cenchrus echinatus), sourgrass (Trichachne insularis), Spanishneedles (Bidens bipinnata), sugarcane (Saccharum officinarum), surinam grass (Brachiaria decumbens) and tall mallow (Malva sylvestris) were planted into greenhouse pots of flats containing greenhouse planting medium. Plant species were grown grown in separate pots or individual compartments. Preemergence applications were made within one day of planting the seed or plant part. Postemergence applications were applied when the plants were in the two to four leaf stage (three to twenty cm).
(§2) Test chemicals were formulated in a non-phytotoxic solvent mixture which included a surfactant and applied preemergence to the soil surface, postemergence to the plants or as a post directed spray to plants and soil at the base of the target species. Untreated control plants and treated plants were placed in the greenhouse and visually evaluated for injury 13 to 21 days after herbicide application. Plant response ratings, summarized in Table E, are based on a 0 to 100 scale where 0 is no injury and 100 is complete control. A dash (−) response means no test result.

[5] = test system: dallisgrass (Paspalum dilatatum); assay: Test E pre-/postemergence/post directed; parameters: key: 0 is no effect; 100 is complete control
Description: as §1, §2

[6] = test system: guineagrass (Panicum maximum); assay: Test E pre-/postemergence/post directed; parameters: key: 0 is no effect; 100 is complete control
Description: as §1, §2

[7] = test system: large crabgrass (Digitaria sanguinalis); assay: Test E pre-/postemergence/post directed; parameters: key: 0 is no effect; 100 is complete control
Description: as §1, §2

[8] = test system: common groundsel (Senecio vulgaris); assay: Test E pre-/postemergence/post directed; parameters: key: 0 is no effect; 100 is complete control
Description: as §1, §2

[9] = test system: tall mallow (Malva sylvestris); assay: Test E pre-/postemergence/post directed; parameters: key: 0 is no effect; 100 is complete control
Description: as §1, §2

[10] = test system: common purslane (Portulaca oleracea); assay: Test E pre-/postemergence/post directed; parameters: key: 0 is no effect; 100 is complete control
Description: as §1, §2

[11] = test system: johnson grass (Sorghum halepense); assay: Test E pre-/postemergence/post directed
How it was run: (§3)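 Injury was scored visually on a 0 to 100 scale (100 = complete control) 13 to 21 days after treatment of greenhouse-grown plants. Test chemicals, in a surfactant-containing non-phytotoxic solvent, were sprayed onto soil within a day of planting, onto plants at the two to four leaf stage, or directed at the base of the plants.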

[12] = test system: pitted morningglory (Ipomoea lacunosa); assay: Test E pre-/postemergence/post directed
How it was run: as §3

[13] = test system: common ragweed (Ambrosia elatior); assay: Test E pre-/postemergence/post directed
How it was run: as §3

[14] = test system: large crabgrass (Digitaria sanguinalis); assay: Test E pre-/postemergence/post directed
How it was run: as §3

[15] = test system: Spanishneedles (Bidens bipinnata); assay: Test E pre-/postemergence/post directed
How it was run: as §3

[16] = test system: itchgrass (Rottboellia exaltata); assay: Test E pre-/postemergence/post directed
How it was run: as §3

[17] = test system: bermudagrass (Cynodon dactylon); assay: Test E pre-/postemergence/post directed
How it was run: as §3

[18] = test system: sandbur (Cenchrus echinatus); assay: Test E pre-/postemergence/post directed
How it was run: as §3

Cc1cnc(-c2ccc(C(F)(F)F)cc2)nc1C(Cl)c1cccc(C(F)(F)F)c1 (racemic) [Compound 21]
Plant response rating, Ladysthumb ([1]; Rate 35 g/ha): 0
Plant response rating, Ladysthumb ([1]; Rate 140 g/ha): 5
Plant response rating, Barnyardgrass ([2]; Rate 35 g/ha): 0
Plant response rating, Barnyardgrass ([2]; Rate 70 g/ha): 0
Plant response rating, Barnyardgrass ([2]; Rate 140 g/ha): 5
Plant response rating, Cotton ([3]; Rate 35 g/ha): 0
Plant response rating, Cotton ([3]; Rate 70 g/ha): 5
Plant response rating, Cotton ([3]; Rate 140 g/ha): 20

Cc1cnc(-n2ccc(C(F)(F)F)n2)nc1Cc1cccc(OC(F)(F)F)c1 [Compound 42]
Plant response rating, Ladysthumb ([1]; Rate 35 g/ha): 90
Plant response rating, Ladysthumb ([1]; Rate 70 g/ha): 85
Plant response rating, Ladysthumb ([1]; Rate 140 g/ha): 95
Plant response rating, Sourgrass ([4]; Rate 32 g/ha): 100
Plant response rating, Sourgrass ([4]; Rate 64 g/ha): 100
Plant response rating, Sourgrass ([4]; Rate 125 g/ha): 100
Plant response rating, Sourgrass ([4]; Rate 250 g/ha): 100
Plant response rating, Dallisgrass ([5]; Rate 32 g/ha): 70
Plant response rating, Dallisgrass ([5]; Rate 64 g/ha): 95
Plant response rating, Dallisgrass ([5]; Rate 125 g/ha): 100
Plant response rating, Dallisgrass ([5]; Rate 250 g/ha): 100
Plant response rating, Guineagrass ([6]; Rate 32 g/ha): 95
Plant response rating, Guineagrass ([6]; Rate 64 g/ha): 95
Plant response rating, Guineagrass ([6]; Rate 125 g/ha): 100
Plant response rating, Guineagrass ([6]; Rate 250 g/ha): 100
Plant response rating, Large crabgrass ([7]; Rate 125 g/ha): 100
Plant response rating, Large crabgrass ([7]; Rate 250 g/ha): 100
Plant response rating, Com. groundsel ([8]; Rate 64 g/ha): 100
Plant response rating, Com. groundsel ([8]; Rate 125 g/ha): 100
Plant response rating, Com. groundsel ([8]; Rate 250 g/ha): 100
Plant response rating, Tall Mallow ([9]; Rate 32 g/ha): 98
Plant response rating, Tall Mallow ([9]; Rate 64 g/ha): 98
Plant response rating, Tall Mallow ([9]; Rate 125 g/ha): 98
Plant response rating, Tall Mallow ([9]; Rate 250 g/ha): 100
Plant response rating, Com. purslane ([10]; Rate 32 g/ha): 100
Plant response rating, Com. purslane ([10]; Rate 64 g/ha): 100
Plant response rating, Com. purslane ([10]; Rate 125 g/ha): 100
Plant response rating, Com. purslane ([10]; Rate 250 g/ha): 100
Plant response rating, Barnyardgrass ([2]; Rate 35 g/ha): 5
Plant response rating, Barnyardgrass ([2]; Rate 70 g/ha): 10
Plant response rating, Barnyardgrass ([2]; Rate 140 g/ha): 100
Plant response rating, Cotton ([3]; Rate 35 g/ha): 30
Plant response rating, Cotton ([3]; Rate 70 g/ha): 60
Plant response rating, Cotton ([3]; Rate 140 g/ha): 60
Plant response rating, Johnsongrass ([11]; Rate 32 g/ha): 10
Plant response rating, Johnsongrass ([11]; Rate 64 g/ha): 90
Plant response rating, Johnsongrass ([11]; Rate 125 g/ha): 90
Plant response rating, Johnsongrass ([11]; Rate 250 g/ha): 95
Plant response rating, P. morninglory ([12]; Rate 64 g/ha): 30
Plant response rating, P. morninglory ([12]; Rate 125 g/ha): 65
Plant response rating, P. morninglory ([12]; Rate 250 g/ha): 75
Plant response rating, Com. ragweed ([13]; Rate 32 g/ha): 50
Plant response rating, Com. ragweed ([13]; Rate 64 g/ha): 75
Plant response rating, Com. ragweed ([13]; Rate 125 g/ha): 90
Plant response rating, Com. ragweed ([13]; Rate 250 g/ha): 90
Plant response rating, Large crabgrass ([14]; Rate 32 g/ha): 50
Plant response rating, Large crabgrass ([14]; Rate 64 g/ha): 90
Plant response rating, Spanishneedles ([15]; Rate 32 g/ha): 20
Plant response rating, Spanishneedles ([15]; Rate 64 g/ha): 20
Plant response rating, Spanishneedles ([15]; Rate 250 g/ha): 90
Plant response rating, Itchgrass ([16]; Rate 32 g/ha): 35
Plant response rating, Itchgrass ([16]; Rate 64 g/ha): 65
Plant response rating, Itchgrass ([16]; Rate 125 g/ha): 80
Plant response rating, Itchgrass ([16]; Rate 250 g/ha): 70
Plant response rating, Bermudagrass ([17]; Rate 32 g/ha): 90
Plant response rating, Bermudagrass ([17]; Rate 64 g/ha): 95
Plant response rating, Bermudagrass ([17]; Rate 125 g/ha): 98
Plant response rating, Bermudagrass ([17]; Rate 250 g/ha): 98
Plant response rating, Sandbur ([18]; Rate 64 g/ha): 40
Plant response rating, Sandbur ([18]; Rate 125 g/ha): 70
Plant response rating, Sandbur ([18]; Rate 250 g/ha): 70

Cc1cnc(-n2cnc(C(F)(F)F)n2)nc1Cc1cccc(C(F)(F)F)c1 [Compound 43]
Plant response rating, Barnyardgrass ([2]; Rate 35 g/ha): 10
Plant response rating, Barnyardgrass ([2]; Rate 70 g/ha): 30
Plant response rating, Barnyardgrass ([2]; Rate 140 g/ha): 50
Plant response rating, Cotton ([3]; Rate 35 g/ha): 0
Plant response rating, Cotton ([3]; Rate 70 g/ha): 0
Plant response rating, Cotton ([3]; Rate 140 g/ha): 10

Cc1cnc(-n2ccc(C(F)(F)F)n2)nc1C(=O)c1cccc(OC(F)(F)F)c1 [Compound 66]
Plant response rating, Ladysthumb ([1]; Rate 35 g/ha): 0
Plant response rating, Ladysthumb ([1]; Rate 140 g/ha): 70
Plant response rating, Barnyardgrass ([2]; Rate 35 g/ha): 0
Plant response rating, Barnyardgrass ([2]; Rate 70 g/ha): 5
Plant response rating, Barnyardgrass ([2]; Rate 140 g/ha): 5
Plant response rating, Cotton ([3]; Rate 35 g/ha): 0
Plant response rating, Cotton ([3]; Rate 70 g/ha): 0
Plant response rating, Cotton ([3]; Rate 140 g/ha): 0
